Data published in patent publication US20260262643A1, “HERBICIDAL BENZOXAZINES” (FMC CORPORATION, priority 2022, published 2026).

What was measured:
blackgrass [1] = test: Test A preemergence; type: in vivo, Alopecurus myosuroides; conditions: 1000 g ai/ha, 0 to 100 scale (0 no effect, 100 complete control), 10 days; for pest or weed control at 1000 g/ha: Alopecurus myosuroides, pre-emergence, 240 h, read-out: Plant response rating, Blackgrass
Procedure, shortened: (§1)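 Loam/sand soil; pre-em directed soil spray at planting, post-em spray at 1–2 leaf (2–10 cm). Compound in non-phytotoxic solvent + surfactant. Greenhouse 10 d; visual injury vs untreated, 0 = no effect, 100 = complete control.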

foxtail, giant [2] = test: Test A preemergence; type: in vivo, Setaria faberi; conditions: 1000 g ai/ha, 0 to 100 scale (0 no effect, 100 complete control), 10 days; for pest or weed control at 1000 g/ha: Setaria faberi, pre-emergence, 240 h, read-out: Plant response rating, Foxtail, Giant
Procedure, shortened: as §1

goosegrass [3] = test: Test A preemergence; type: in vivo, Eleusine indica; conditions: 1000 g ai/ha, 0 to 100 scale (0 no effect, 100 complete control), 10 days; for pest or weed control at 1000 g/ha: Eleusine indica, pre-emergence, 240 h, read-out: Plant response rating, Goosegrass
Procedure, shortened: as §1

kochia [4] = test: Test A preemergence; type: in vivo, Bassia scoparia; conditions: 1000 g ai/ha, 0 to 100 scale (0 no effect, 100 complete control), 10 days; for pest or weed control at 1000 g/ha: Bassia scoparia, pre-emergence, 240 h, read-out: Plant response rating, Kochia
Procedure, shortened: as §1

pigweed, palmer [5] = test: Test A preemergence; type: in vivo, Amaranthus palmeri; conditions: 1000 g ai/ha, 0 to 100 scale (0 no effect, 100 complete control), 10 days; for pest or weed control at 1000 g/ha: Amaranthus palmeri, pre-emergence, 240 h, read-out: Plant response rating, Pigweed, Palmer
Procedure, shortened: as §1

ragweed [6] = test: Test A preemergence; type: in vivo, Ambrosia artemisiifolia; conditions: 1000 g ai/ha, 0 to 100 scale (0 no effect, 100 complete control), 10 days; for pest or weed control at 1000 g/ha: Ambrosia artemisiifolia, pre-emergence, 240 h, read-out: Plant response rating, Ragweed
Procedure, shortened: as §1

ryegrass, Italian [7] = test: Test A preemergence; type: in vivo, Lolium multiflorum; conditions: 1000 g ai/ha, 0 to 100 scale (0 no effect, 100 complete control), 10 days; for pest or weed control at 1000 g/ha: Lolium multiflorum, pre-emergence, 240 h, read-out: Plant response rating, Ryegrass, Italian
Procedure, shortened: as §1

blackgrass [8] = test: Test A postemergence; type: in vivo, Alopecurus myosuroides; conditions: 1000 g ai/ha, Postemergence, 0 to 100 scale; for pest or weed control at 1000 g/ha: Alopecurus myosuroides, post-emergence, 240 h, read-out: Plant response rating, Blackgrass
Procedure, shortened: as §1

foxtail, giant [9] = test: Test A postemergence; type: in vivo, Setaria faberi; conditions: 1000 g ai/ha, Postemergence, 0 to 100 scale; for pest or weed control at 1000 g/ha: Setaria faberi, post-emergence, 240 h, read-out: Plant response rating, Foxtail, Giant
Procedure, shortened: as §1

goosegrass [10] = test: Test A postemergence; type: in vivo, Eleusine indica; conditions: 1000 g ai/ha, Postemergence, 0 to 100 scale; for pest or weed control at 1000 g/ha: Eleusine indica, post-emergence, 240 h, read-out: Plant response rating, Goosegrass
Procedure, shortened: as §1

kochia [11] = test: Test A postemergence; type: in vivo, Bassia scoparia; conditions: 1000 g ai/ha, Postemergence, 0 to 100 scale; for pest or weed control at 1000 g/ha: Bassia scoparia, post-emergence, 240 h, read-out: Plant response rating, Kochia
Procedure, shortened: as §1

pigweed, palmer [12] = test: Test A postemergence; type: in vivo, Amaranthus palmeri; conditions: 1000 g ai/ha, Postemergence, 0 to 100 scale; for pest or weed control at 1000 g/ha: Amaranthus palmeri, post-emergence, 240 h, read-out: Plant response rating, Pigweed, Palmer
Procedure, shortened: as §1

ragweed [13] = test: Test A postemergence; type: in vivo, Ambrosia artemisiifolia; conditions: 1000 g ai/ha, Postemergence, 0 to 100 scale; for pest or weed control at 1000 g/ha: Ambrosia artemisiifolia, post-emergence, 240 h, read-out: Plant response rating, Ragweed
Procedure, shortened: as §1

ryegrass, Italian [14] = test: Test A postemergence; type: in vivo, Lolium multiflorum; conditions: 1000 g ai/ha, Postemergence, 0 to 100 scale; for pest or weed control at 1000 g/ha: Lolium multiflorum, post-emergence, 240 h, read-out: Plant response rating, Ryegrass, Italian
Procedure, shortened: as §1

galium = test: Test A postemergence; type: in vivo, Galium aparine; conditions: 1000 g ai/ha, Postemergence, 0 to 100 scale; for pest or weed control at 1000 g/ha: Galium, post-emergence, 240 h, read-out: Plant response rating, Galium
Procedure, shortened: as §1

horseweed = test: Test A postemergence; type: in vivo, Erigeron canadensis; conditions: 1000 g ai/ha, Postemergence, 0 to 100 scale; for pest or weed control at 1000 g/ha: Erigeron canadensis, post-emergence, 240 h, read-out: Plant response rating, Horseweed
Procedure, shortened: as §1

barnyardgrass = test: Test B flooded paddy test; type: in vivo, Echinochloa crus-galli; conditions: 250 g ai/ha, Flood, 13 days, 0 to 100 scale (0 no effect, 100 complete control); for pest or weed control at 250 g/ha: Echinochloa crus-galli, 312 h, read-out: Plant response rating, Barnyardgrass
Protocol: (§2) Plant species in the flooded paddy test selected from barnyardgrass (Echinochloa crus-galli), ducksalad (Heteranthera limosa), rice (Oryza sativa), and sedge, umbrella (small-flower umbrella sedge, Cyperus difformis) were grown to the 2-leaf stage for testing. At time of treatment, test pots were flooded to 3 cm above the soil surface, treated by application of test compounds directly to the paddy water, and then maintained at that water depth for the duration of the test. Treated plants and controls were maintained in a greenhouse for 13 days, after which time all species were compared to controls and visually evaluated. Plant response ratings, summarized in Table B, are based on a scale of 0 to 100 where 0 is no effect and 100 is complete control. A dash (-) response means no test result.

ducksalad = test: Test B flooded paddy test; type: in vivo, Heteranthera limosa; conditions: 250 g ai/ha, Flood, 13 days, 0 to 100 scale (0 no effect, 100 complete control); for pest or weed control at 250 g/ha: Heteranthera limosa, 312 h, read-out: Plant response rating, Ducksalad
Protocol: as §2

rice = test: Test B flooded paddy test; type: in vivo, Oryza sativa; conditions: 250 g ai/ha, Flood, 13 days, 0 to 100 scale (0 no effect, 100 complete control); for plant injury at 250 g/ha: Oryza sativa, 312 h, read-out: Plant response rating, Rice
Protocol: as §2

sedge, umbrella = test: Test B flooded paddy test; type: in vivo, Cyperus difformis; conditions: 250 g ai/ha, Flood, 13 days, 0 to 100 scale (0 no effect, 100 complete control); for pest or weed control at 250 g/ha: Cyperus difformis, 312 h, read-out: Plant response rating, Sedge, Umbrella
Protocol: as §2

Structure (SMILES) | pest or weed control at 1000 g/ha (blackgrass [1]) [%] | pest or weed control at 1000 g/ha (foxtail, giant [2]) [%] | pest or weed control at 1000 g/ha (goosegrass [3]) [%] | pest or weed control at 1000 g/ha (kochia [4]) [%] | pest or weed control at 1000 g/ha (pigweed, palmer [5]) [%] | pest or weed control at 1000 g/ha (ragweed [6]) [%] | pest or weed control at 1000 g/ha (ryegrass, Italian [7]) [%] | pest or weed control at 1000 g/ha (blackgrass [8]) [%] | pest or weed control at 1000 g/ha (foxtail, giant [9]) [%] | pest or weed control at 1000 g/ha (goosegrass [10]) [%] | pest or weed control at 1000 g/ha (kochia [11]) [%] | pest or weed control at 1000 g/ha (pigweed, palmer [12]) [%] | pest or weed control at 1000 g/ha (ragweed [13]) [%] | pest or weed control at 1000 g/ha (ryegrass, Italian [14]) [%] | pest or weed control at 1000 g/ha (galium) [%] | pest or weed control at 1000 g/ha (horseweed) [%] | pest or weed control at 250 g/ha (barnyardgrass) [%] | pest or weed control at 250 g/ha (ducksalad) [%] | plant injury at 250 g/ha (rice) [%] | pest or weed control at 250 g/ha (sedge, umbrella) [%] | further results
COCC1CN(C(=O)c2ccnc(-n3cncn3)c2)c2cccc(Cl)c2O1 (stereo not drawn) [Compound 35, [8-Chloro-2,3-dihydro-2-(methoxymethyl)-4H-1,4-benzoxazin-4-yl][2-(1H-1,2,4-triazol-1-yl)-4-pyridinyl]methanone] | 70 | 100 | 90 | 50 | 90 | 20 | 90 | 60 | 90 | 50 | 50 | 50 | 50 | 80 | 80 | 20 | 0 | 30 | 0 | 40 | 
COc1cccc2c1OC(C)CN2C(=O)c1cccc(-n2cncn2)c1 (stereo not drawn) [Compound 41] |  |  |  |  |  |  |  |  |  |  |  |  |  |  |  |  |  |  |  |  | Plant response rating, Blackgrass (blackgrass [1]): 30; Plant response rating, Foxtail, Giant (foxtail, giant [2]): 90; Plant response rating, Goosegrass (goosegrass [3]): 90; Plant response rating, Kochia (kochia [4]): 0; Plant response rating, Pigweed, Palmer (pigweed, palmer [5]): 30; Plant response rating, Ragweed (ragweed [6]): 0; Plant response rating, Ryegrass, Italian (ryegrass, Italian [7]): 70; Plant response rating, Blackgrass (blackgrass [8]): 50; Plant response rating, Foxtail, Giant (foxtail, giant [9]): 60; Plant response rating, Goosegrass (goosegrass [10]): 0; Plant response rating, Kochia (kochia [11]): 20; Plant response rating, Pigweed, Palmer (pigweed, palmer [12]): 20; Plant response rating, Ragweed (ragweed [13]): 0; Plant response rating, Ryegrass, Italian (ryegrass, Italian [14]): 60; Plant response rating, Galium (galium): 70; Plant response rating, Horseweed (horseweed): 0; Plant response rating, Barnyardgrass (barnyardgrass): 0; Plant response rating, Ducksalad (ducksalad): 50; Plant response rating, Rice (rice): 0; Plant response rating, Sedge, Umbrella (sedge, umbrella): 55
C[C@H]1CN(C(=O)c2cccc(-c3cnn(C)c3)c2)c2cccc(Cl)c2O1 [Compound 119, [(2S)-8-Chloro-2,3-dihydro-2-methyl-4H-1,4-benzoxazin-4-yl][3-(1-methyl-1H-pyrazol-4-yl)phenyl]methanone] | 70 | 100 | 90 | 10 | 90 | 90 | 50 | 70 | 90 | 70 | 90 | 80 | 70 | 20 | 90 | 0 | 0 | 0 | 0 | 0 | 
